What all share (experiment): NCI-60 cell line screen, 48 h
The test system of test [1] is M14.
The subject of test [2] is U-251.
Test [3] concerns OVCAR-5.
Test [4] has as its system HCT-15.
In test [5] the test system is K562.
The test system of test [6] is EKVX.
The test system of test [7] is HT-29.
For test [8], the system named is KM12.
The subject of test [9] is RXF 393.
Test [10] has as its system UO-31.
For test [11], the system named is HCT-116.
For test [12], the system named is SF-268.
The subject of test [13] is SK-OV-3.
In test [14] the test system is SK-MEL-5.
Test [15] relates to NCI-H522.
The subject of test [16] is A549.
Test [17] relates to A498.
Test [18] relates to HL-60.
Test [19] concerns UACC-257.
Test [20] relates to OVCAR-4.

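48-hour exposure; five concentrations; linearly interpolated endpoints. Here, GI50 denotes the concentration required for 50% inhibition of growth.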 The source made the active and inactive calls. Cut-off read from the data, not from the text of the source: active = GI50 up to about 1.1 µM and inactive = higher.

`O=C(Nc1ccc(F)cc1)C(=O)C(C(=O)c1ccccc1F)C1OC(=O)c2ccccc21` (centres undefined): the GI50 was > 100 µM (inactive) in [1]; 24 µM (inactive) in test [2]; > 100 µM (inactive) in [3]; 23.6 µM in [4]; 34.7 µM (inactive) in test [5]; 68.4 µM (inactive) in test [6]. Besides, the GI50 is 52.6 µM (inactive) in test [7]; 79.4 µM (inactive) in [8]; > 100 µM (inactive) in test [9]; 52.6 µM (inactive) in test [10]; 45.8 µM (inactive) in [11]; 50 µM (inactive) in [12]. Also, the GI50 in [13] is 66.5 µM (inactive); in test [14], > 100 µM (inactive); in test [15], 15 µM (inactive); in [16], > 100 µM (inactive); in [17], > 100 µM (inactive); in test [18] it was 29.8 µM (inactive). The GI50 in test [19] was > 100 µM (inactive); in [20], 55.3 µM (inactive).
Regarding `COC(=O)C(=O)C(C(=O)Nc1cccc(C)c1C)C1Sc2ccccc2NC1=O` (centres undefined), the GI50 in test [1] is 8.55 µM (inactive); in test [2] it was 12.3 µM (inactive); in test [3] it was > 25 µM (inactive); in [4], 11.4 µM; in test [5], 9.79 µM (inactive); in test [6], > 25 µM (inactive). The GI50 in test [7] is 7.8 µM (inactive); in [8], 7.69 µM (inactive); in [9] it was 7.55 µM (inactive); in test [10], > 25 µM (inactive); in test [11], 8.22 µM (inactive); in [12], 17.6 µM (inactive). Further, the GI50 in test [13] is > 25 µM (inactive); in [14], 8.11 µM (inactive); in [15], 15.8 µM (inactive); in [16], 10.9 µM (inactive); in test [17] it was 11.5 µM (inactive); in test [18] it was 4.89 µM (inactive). Further, the GI50 in test [19] was 16.4 µM (inactive); in test [20], > 25 µM (inactive).
With `CCOC(=O)c1cccc(NC(=O)CBr)c1`, the GI50 in [1] is 1.3 µM (inactive); in test [2], 0.581 µM (active); in [3], 1.75 µM (inactive); in test [4] it was 1.28 µM; in test [5], 0.362 µM (active); in [6], 1.62 µM (inactive). The GI50 is 1.69 µM (inactive) in test [7]; 1.79 µM (inactive) in [8]; 1.72 µM (inactive) in test [9]; 0.776 µM (active) in test [10]; 0.664 µM (active) in [11]; 1.85 µM (inactive) in test [13]. The GI50 in [14] was 1.41 µM (inactive); in test [15], 0.0164 µM (active); in test [16], 2.09 µM (inactive); in test [17], 3.43 µM (inactive); in [18], 1.74 µM (inactive); in test [19], 1.82 µM (inactive). Besides, the GI50 in test [20] is 1.53 µM (inactive).
Take `N#C[C@@H](c1nc2ccccc2s1)c1ncccc1[N+](=O)[O-]`: the GI50 in [1] was 8.22 µM (inactive); in test [2], 3.48 µM (inactive); in test [3], 11.9 µM (inactive); in [4], 7.13 µM; in test [5], > 10 µM (inactive); in test [6] it was 5.89 µM (inactive). For the same molecule, the GI50 in test [7] is 8.3 µM (inactive); in test [8], 10.6 µM (inactive); in test [9] it was 5.87 µM (inactive); in test [10], 3.99 µM (inactive); in test [11], 5.6 µM (inactive); in test [12], 8.11 µM (inactive). Besides, the GI50 in test [13] was 16.6 µM (inactive); in test [14], 3.24 µM (inactive); in test [15] it was 2.51 µM (inactive); in test [16] it was 4.4 µM (inactive); in test [17] it was 10.8 µM (inactive); in [18], > 10 µM (inactive). Further, the figures for the GI50 in [19] and in test [20] were 2.12 µM (inactive) and 7.91 µM (inactive), respectively.
Take `COc1cc(/C=C(\C)[N+](=O)[O-])cc(OC)c1`: the GI50 in test [1] is 14.8 µM (inactive); in [2], 17.7 µM (inactive); in test [3], 20.1 µM (inactive); in test [4], 12.6 µM; in test [5], 2.69 µM (inactive); in test [6] it was 19.2 µM (inactive). In addition, the GI50 in test [7] was 20 µM (inactive); in [8] it was 19.3 µM (inactive); in [9], 7.48 µM (inactive); in [10], 15.6 µM (inactive); in test [11], 16.1 µM (inactive); in test [12] it was 19.3 µM (inactive). In addition, the GI50 is > 100 µM (inactive) in [13]; 16 µM (inactive) in [14]; 1.87 µM (inactive) in test [15]; 28.3 µM (inactive) in test [16]; 8.05 µM (inactive) in [17]; 2.04 µM (inactive) in [18]. For the same molecule, the values for the GI50 in test [19] and in test [20] were 15.5 µM (inactive) and 18.1 µM (inactive), respectively.
For the molecule `CC(C)C(=O)N1C(=O)O[C@@H](c2ccccc2)[C@H]1C`, the GI50 in test [1] is > 100 µM (inactive); in test [2], > 100 µM (inactive); in [3] it was > 100 µM (inactive); in [4], more than 100 µM; in test [5], > 100 µM (inactive); in test [6] it was > 100 µM (inactive). Besides, the GI50 was > 100 µM (inactive) in [7]; > 100 µM (inactive) in test [8]; > 84.1 µM (inactive) in test [9]; > 100 µM (inactive) in test [10]; > 100 µM (inactive) in test [11]; > 100 µM (inactive) in [12]. Further, the GI50 in [13], in test [14], in test [15], in test [16], in [17] and in test [18] was > 100 µM (inactive) throughout. Besides, the GI50 in test [19] and in [20] was > 100 µM (inactive) throughout.
With `c1ccc(Nc2nnc(CCCCCCCCc3nnc(Nc4ccccc4)o3)o2)cc1`, the GI50 in [1] was > 100 µM (inactive); in test [2] it was > 100 µM (inactive); in [3], > 100 µM (inactive); in [4], more than 100 µM; in [5], > 100 µM (inactive); in [6], > 100 µM (inactive). Besides, the GI50 in test [7], in test [8], in [9], in [10], in test [11] and in test [12] was > 100 µM (inactive) each time. Further, the GI50 in test [13], in test [14], in [15], in [16], in test [17] and in test [18] was > 100 µM (inactive) throughout. Further, the GI50 in [19] and in test [20] was > 100 µM (inactive) each time.
